Laboratory results as given in patent EP3572411A1, “THIAZOLE DERIVATIVES AS METALLO-BETA-LACTAMASE INHIBITORS” (Antabio SAS, priority 2018, dated 2019).
Where two headings read alike, the source gives them in different places.

Tests used:
Assay in all cases: In vitro enzyme inhibition assay (imipenem hydrolysis, UV 299 nm)
Assay type in all cases: biochemical
[1] = target: T1, IMP-1 (Serratia marcescens, UniProt P52699)
T1 construct: VIM-1; VIM-2
Method: (§1) In vitro enzyme inhibition assays: Enzyme inhibition assays are performed using purified MBL enzymes (NDM-1; VIM-1; VIM-2; IMP-1) in 10mM HEPES buffer pH 7.5 in 96-well microtiter plates. Imipenem (300µM) is used as substrates and its hydrolysis is followed at UV 299 nm during 10mn every 30 seconds using a Perkin Elmer Envision UV fluorescence plate reader. Hydrolysis rate data in presence of a range of inhibitors are analysed using Dotmatics database software and calculated IC50 values are converted to Ki values using the Cheng-Prusoff equation. Ki = IC50 / (1+([S]/Km) and where the Km values for […] are 70 µM, 1.5 µM, 9 µM and 25 µM respectively. Compound dilution is performed in DMSO. Mean Ki values from multiple experiments are presented. Results are shown in Table 1.

[2] = target: T2, NDM-1 (Klebsiella pneumoniae, UniProt C7C422)
T2 construct: VIM-1; VIM-2
T2 sequence (C7C422 29-270, looked up): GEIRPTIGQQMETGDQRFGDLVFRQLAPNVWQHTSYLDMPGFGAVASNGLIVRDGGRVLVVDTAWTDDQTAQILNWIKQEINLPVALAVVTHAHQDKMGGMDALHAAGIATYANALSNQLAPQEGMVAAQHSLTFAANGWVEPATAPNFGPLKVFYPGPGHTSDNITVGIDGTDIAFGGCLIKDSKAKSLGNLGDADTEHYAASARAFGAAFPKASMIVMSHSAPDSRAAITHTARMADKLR
Method: as §1

[3] = target: T3, VIM-2 (Escherichia coli, UniProt Q5U7L7); conditions: read-out: Ki (µM) VIM-2; purified enzyme, 10mM HEPES pH 7.5, Imipenem 300µM; mean Ki from IC50 by Cheng-Prusoff
T3 construct: VIM-1; VIM-2
Method: as §1

[4] = target: T4, VIM-1 (Pseudomonas aeruginosa, UniProt A0A0F7KYQ8)
T4 construct: VIM-1; VIM-2; IMP-1)
Method: as §1

[5] = read-out: Ki (µM) IMP-1; purified enzyme, 10mM HEPES pH 7.5, Imipenem 300µM; mean Ki from IC50 by Cheng-Prusoff
[6] = read-out: Ki (µM) NDM-1; purified enzyme, 10mM HEPES pH 7.5, Imipenem 300µM; mean Ki from IC50 by Cheng-Prusoff
[7] = read-out: Ki (µM) VIM-1; purified enzyme, 10mM HEPES pH 7.5, Imipenem 300µM; mean Ki from IC50 by Cheng-Prusoff

T1 sequence (P52699 19-246, looked up, species assumed): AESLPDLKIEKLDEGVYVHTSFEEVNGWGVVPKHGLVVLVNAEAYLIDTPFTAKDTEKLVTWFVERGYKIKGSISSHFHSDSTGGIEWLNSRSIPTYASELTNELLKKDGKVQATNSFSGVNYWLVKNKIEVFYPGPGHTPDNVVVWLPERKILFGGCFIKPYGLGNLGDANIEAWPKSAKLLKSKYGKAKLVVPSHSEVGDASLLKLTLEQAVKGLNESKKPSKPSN

Structure (SMILES)	Ki [1, 5]	Ki [2, 6]	Ki [3]	Ki [4, 7]	Ki ([1]; purified enzyme, 10mM HEPES pH 7.5, Imipenem 300µM; mean Ki from IC50 by Cheng-Prusoff; read-out: Ki (µM) IMP-1)	Ki ([2]; purified enzyme, 10mM HEPES pH 7.5, Imipenem 300µM; mean Ki from IC50 by Cheng-Prusoff; read-out: Ki (µM) NDM-1)	Ki ([4]; purified enzyme, 10mM HEPES pH 7.5, Imipenem 300µM; mean Ki from IC50 by Cheng-Prusoff; read-out: Ki (µM) VIM-1)
C[n+]1ccn(CC(=O)Nc2ccc(S(=O)(=O)Nc3scnc3C(=O)[O-])cc2F)c1 [Example 1, 1-[({4-[(4-carboxy-1,3-thiazol-5-yl)sulfamoyl]-2-fluorophenyl}carbamoyl)methyl]-3-methyl-1H-imidazol-3-ium]	1 to 8 µM	< 0.05 µM	0.05 to 0.2 µM	0.2 to 0.5 µM			
Cc1n(CC(=O)Nc2ccc(S(=O)(=O)Nc3scnc3C(=O)[O-])cc2F)cc[n+]1C [Example 2, 1-[({4-[(4-carboxy-1,3-thiazol-5-yl)sulfamoyl]-2-fluorophenyl}carbamoyl)methyl]-2,3-dimethyl-1H-imidazol-3-ium]	1 to 8 µM	0.05 to 0.2 µM	0.05 to 0.2 µM	0.2 to 0.5 µM			
C[n+]1ccn(CC(=O)Nc2ccc(S(=O)(=O)Nc3scnc3C(=O)[O-])cc2F)c1N [Example 3, 2-amino-1-[({4-[(4-carboxy-1,3-thiazol-5-yl)sulfamoyl]-2-fluorophenyl}carbamoyl)methyl]-3-methyl-1H-imidazol-3-ium]	1 to 8 µM	0.05 to 0.2 µM	0.05 to 0.2 µM	0.2 to 0.5 µM			
CSc1n(CC(=O)Nc2ccc(S(=O)(=O)Nc3scnc3C(=O)[O-])cc2F)cc[n+]1C [Example 4]					1 to 8 µM	0.05 to 0.2 µM	0.2 to 0.5 µM
O=C(Cn1cc[n+]2c1COCC2)Nc1ccc(S(=O)(=O)Nc2scnc2C(=O)[O-])cc1F [Example 5, 1-[({4-[(4-carboxy-1,3-thiazol-5-yl)sulfamoyl]-2-fluorophenyl}carbamoyl)methyl]-1H,5H,6H,8H-4lambda5-imidazo[2,1-c][1,4]oxazin-4-ylium]	1 to 8 µM	0.05 to 0.2 µM	0.05 to 0.2 µM	0.5 to 0.8 µM			
Cc1c[n+](C)cn1CC(=O)Nc1ccc(S(=O)(=O)Nc2scnc2C(=O)[O-])cc1F [Example 6, 1-[({4-[(4-carboxy-1,3-thiazol-5-yl)sulfamoyl]-2-fluorophenyl}carbamoyl)methyl]-3,5-dimethyl-1H-imidazol-3-ium]	1 to 8 µM	0.2 to 0.4 µM	0.05 to 0.2 µM	0.5 to 0.8 µM			
Cc1cn(CC(=O)Nc2ccc(S(=O)(=O)Nc3scnc3C(=O)[O-])cc2F)c[n+]1C [Example 7, 1-[({4-[(4-carboxy-1,3-thiazol-5-yl)sulfamoyl]-2-fluorophenyl}carbamoyl)methyl]-3,4-dimethyl-1H-imidazol-3-ium]	1 to 8 µM	0.2 to 0.4 µM	0.02 to 0.05 µM	< 0.2 µM			
C[n+]1c(N)ccn1CC(=O)Nc1ccc(S(=O)(=O)Nc2scnc2C(=O)[O-])cc1F [Example 8, 3-amino-1-[({4-[(4-carboxy-1,3-thiazol-5-yl)sulfamoyl]-2-fluorophenyl}carbamoyl)methyl]-2-methyl-1H-pyrazol-2-ium]	1 to 8 µM	0.05 to 0.2 µM		0.2 to 0.5 µM			
C[n+]1ccn(CC(=O)Nc2ccc(S(=O)(=O)Nc3scnc3C(=O)[O-])cc2F)n1 [Example 9, 1-[({4-[(4-carboxy-1,3-thiazol-5-yl)sulfamoyl]-2-fluorophenyl}carbamoyl)methyl]-3-methyl-1H-1,2,3-triazol-3-ium]	1 to 8 µM	< 0.05 µM	0.05 to 0.2 µM	0.2 to 0.5 µM			
C[n+]1cccn1CC(=O)Nc1ccc(S(=O)(=O)Nc2scnc2C(=O)[O-])cc1F [Example 10, 1-[({4-[(4-carboxy-1,3-thiazol-5-yl)sulfamoyl]-2-fluorophenyl}carbamoyl)methyl]-2-methyl-1H-pyrazol-2-ium]	1 to 8 µM	0.05 to 0.2 µM		0.2 to 0.5 µM			
NCC[n+]1ccn(CC(=O)Nc2ccc(S(=O)(=O)Nc3scnc3C(=O)[O-])cc2F)c1 [Example 11, 3-(2-aminoethyl)-1-[({4-[(4-carboxy-1,3-thiazol-5-yl)sulfamoyl]-2-fluorophenyl}carbamoyl)methyl]-1H-imidazol-3-ium]	1 to 8 µM	< 0.05 µM	0.02 to 0.05 µM	< 0.2 µM			
N=C(N)NCC[n+]1ccn(CC(=O)Nc2ccc(S(=O)(=O)Nc3scnc3C(=O)[O-])cc2F)c1 [Example 12, 3-(2-carbamimidamidoethyl)-1-[({4-[(4-carboxy-1,3-thiazol-5-yl)sulfamoyl]-2-fluorophenyl}carbamoyl)methyl]-1H-imidazol-3-ium]	1 to 8 µM	< 0.05 µM	0.05 to 0.2 µM	< 0.2 µM			
C[n+]1ccn(CC(=O)Nc2c(F)cc(S(=O)(=O)Nc3scnc3C(=O)[O-])cc2F)c1 [Example 13, 1-[({4-[(4-carboxy-1,3-thiazol-5-yl)sulfamoyl]-2,6-difluorophenyl}carbamoyl)methyl]-3-methyl-1H-imidazol-3-ium]	1 to 8 µM	0.05 to 0.2 µM	0.05 to 0.2 µM	0.5 to 0.8 µM			
NCC[n+]1ccn(CC(=O)Nc2c(F)cc(S(=O)(=O)Nc3scnc3C(=O)[O-])cc2F)c1 [Example 14, 3-(2-aminoethyl)-1-[({4-[(4-carboxy-1,3-thiazol-5-yl)sulfamoyl]-2,6-difluorophenyl}carbamoyl)methyl]-1H-imidazol-3-ium]	1 to 8 µM	< 0.05 µM	0.02 to 0.05 µM	< 0.2 µM			
N=C(N)NCC[n+]1ccn(CC(=O)Nc2c(F)cc(S(=O)(=O)Nc3scnc3C(=O)[O-])cc2F)c1 [Example 15, 1-(2-carbamimidamidoethyl)-3-[({4-[(4-carboxy-1,3-thiazol-5-yl)sulfamoyl]-2,6-difluorophenyl}carbamoyl)methyl]imidazol-1-ium]	1 to 8 µM	< 0.05 µM	0.02 to 0.05 µM	< 0.2 µM			
NCCC[n+]1ccn(CC(=O)Nc2ccc(S(=O)(=O)Nc3scnc3C(=O)[O-])cc2F)c1 [Example 16, 3-(3-aminopropyl)-1-[({4-[(4-carboxy-1,3-thiazol-5-yl)sulfamoyl]-2-fluorophenyl}carbamoyl)methyl]-1H-imidazol-3-ium]	1 to 8 µM	< 0.05 µM	< 0.02 µM	< 0.2 µM			
N#Cc1cc(S(=O)(=O)Nc2scnc2C(=O)[O-])ccc1NC(=O)Cn1cc[n+](CCN)c1 [Example 18, 3-(2-aminoethyl)-1-[({4-[(4-carboxy-1,3-thiazol-5-yl)sulfamoyl]-2-cyanophenyl}carbamoyl)methyl]-1H-imidazol-3-ium]	0.5 to 1 µM	0.05 to 0.2 µM	< 0.02 µM	< 0.2 µM			
N#Cc1cc(S(=O)(=O)Nc2scnc2C(=O)[O-])ccc1NC(=O)Cn1cc[n+](CCNC(=N)N)c1 [Example 19, 3-(2-carbamimidamidoethyl)-1-[({4-[(4-carboxy-1,3-thiazol-5-yl)sulfamoyl]-2-cyanophenyl}carbamoyl)methyl]-1H-imidazol-3-ium]	1 to 8 µM	0.2 to 0.4 µM	0.02 to 0.05 µM	< 0.2 µM			
CN(C)CC[n+]1ccn(CC(=O)Nc2ccc(S(=O)(=O)Nc3scnc3C(=O)[O-])cc2F)c1 [Example 20, 3-[({4-[(4-carboxy-1,3-thiazol-5-yl)sulfamoyl]-2-fluorophenyl}carbamoyl)methyl]-1-[2-(dimethylamino)ethyl]imidazol-1-ium]	1 to 8 µM	< 0.05 µM	0.05 to 0.2 µM	< 0.2 µM			
C[n+]1cn(CC(=O)Nc2ccc(S(=O)(=O)Nc3scnc3C(=O)[O-])cc2F)cn1 [Example 22, 4-[({4-[(4-carboxy-1,3-thiazol-5-yl)sulfamoyl]-2-fluorophenyl}carbamoyl)methyl]-1-methyl-1,2,4-triazol-1-ium]	0.5 to 1 µM	0.05 to 0.2 µM	0.05 to 0.2 µM	0.2 to 0.5 µM			
